{
  "source": "patent US20110239322A1",
  "about": "“IN VITRO FLOWERING/SEED SET LEADING TO PARTIAL OR COMPLETE MALE STERILITY IN GRASSES” (THE PENN STATE RESEARCH FOUNDATION, priority 2010, published 2011)",
  "tested_on": "shoot explant",
  "assay": "in vitro flowering on flowering medium (MS medium with growth regulators)",
  "parameters": "species or system grasses",
  "protocol": "In a preferred embodiment, seeds are washed in running tap water with a drop of soap for 5 mins and sterilized with 95% ethyl alcohol for 2 min followed by a 15 minute treatment with 10% bleach and washed three times for 5 min intervals with sterile distilled water. Ten seeds are germinated in each petriplate with MS medium with […]. After germination on MS 2,4-D, for a period of time, such as 3-7 days in the dark at 24±2° C. The flowering medium preferably comprises a substituted phenylurea cytokinin analog, such as TDZ and a cytokinin such as BAP.\nCultures are incubated at 24±2° C. under a 16/8-hour […] photoperiod provided by cool-white fluorescent lights at a quantum flux density of 30 μmol s^−1 m^−2. Following a passage of time, typically within 2 weeks, callus induction occurs, having taken the first internode of the germinated seed (on MS 4 mg/L 2,4-D medium). After about two weeks, the callus is transferred to regeneration medium, to allow for shoot induction (MS, 0.5 mg/L BAP, 0.1 mg/L 2,4-D, 38 mg/L CuSO4). During this time (shoot regeneration), cultures are incubated with necessary dark photoperiodic conditions to promote growth and to mimic natural growing conditions. Additionally, over time it may be necessary to subculture the explants with fresh MS, BAP, 2,4-D, CuSO4. […]",
  "data": [
    {"smiles": "O=C(Nc1ccccc1)Nc1cnns1", "note": "[TDZ, 1-phenyl-3-(1,2,3-thiadiazol-5-yl)urea]", "values": [
      {"measurement": "flower production on shoot explant", "setting": "TDZ 2.0 mg/L combined with BAP 1.0 mg/L in flowering medium", "result": "flowers are produced directly on a shoot explant"},
      {"measurement": "flower production on shoots developed from callus", "setting": "TDZ 1.0-2.0 mg/L without BAP", "result": "produces flowers on shoots developed from callus"}
    ]}
  ]
}
